Experimental data published in patent US12024584B2, “Methods and compositions for polyurethane dispersions using caprolactam-derived solvents” (AdvanSix Resins & Chemicals LLC, priority 2017, dated 2024).

Assays:
[1] = Solubility of DMPA in solvents
Protocol: Solubility was tested between the various solvents to determine their applicability in the PUD manufacturing processes. Solubility is the amount of a substance (coalescing agent) that dissolves in a unit volume of a liquid substance (solvent) to form a saturated solution under specified conditions of temperature and pressure. For the examples, amounts of […] (DMPA) were dissolved in each solvent.

[2] = Color of pigmented and complete PUDs (ISO 7724-2); format: physicochemical; conditions: for effect on color (yellowing): pigmented PUD
Source text: (§1) Tests were first performed to determine the coalescing agent level for pigmented and complete PUD formulations in order to achieve the optimum film formation. Complete paints were mixed with 0.7 wt. %, 1.5 wt. %, 3.0 wt. % and 5.0 wt. % of coalescing agents and applied on tin plated steel at a wet film thickness of around 250 μm, where the weight percentage was based on the pure polyurethane dispersion resins. […] Based on the observations, 3 wt. % dosage of coalescing agent was selected. Complete PUD formulations with pigments, fillers and other additives were prepared as per Table 5, and used to test and determine the coalescing properties of the caprolactam-derived solvents and other known coalescing agents.
(§2) Gloss measurements serve as an indicator of the paints surface quality. Gloss and color measurements were determined according to the ISO 2813 standard and the ISO 7724-2 standard (SCI-D65/10°), respectively.

[3] = Persoz hardness of pigmented and complete PUDs; format: physicochemical; conditions: pigmented, in s
Source text: as §1
Persoz hardness measurements were performed on pigmented paints that were applied on tin plated steel using a doctor blade applicator at a dry film thickness (DFT) around 50 μm according to the ISO 1522 standard. […] For instance, the 28 day hardness for N-ethyl caprolactam (NE CPL) was approximately 104.6±0.5, while the 28 day hardness for NMP was approximately 108.8±2.4, and the 28 day hardness for ester alcohol and N-methyl caprolactam (NM CPL) were approximately 124.8±1 and 126.0±1, respectively, while the 28 day hardness for NBP was approximately 135.8±5.

[4] = Scrub resistance of pigmented and complete PUDs (ISO 11998); format: physicochemical; conditions: for Wt. Loss: 200 wet-scrub cycles; for Loss of thickness after 200 wet-scrub cycles: calculated from weight loss
Source text: as §1
Scrub resistance was tested according the ISO 11998 “Paints and Varnishes—Determination of Wet-Scrub Resistance and Cleanability of Coatings” standard. In this testing method, the paint was applied on a test panel (Leneta sheet) using a film applicator at the specific gap clearance. After drying and conditioning for four weeks at room temperature the coated panel was weighed and subject to 200 wet-scrub cycles in a scrub resistance machine. The panel was then washed, dried and weighed to determine the loss from which the mean loss in film thickness was calculated. […] For instance, N-methyl caprolactam (NM CPL), N-ethyl caprolactam (NE CPL), and blends thereof in the ratios of 1:2 and 1:1, all had less loss of thickness (2.035 μm, 1.797 μm, 1.39 μm, and 1.64 μm, respectively) as compared to NMP (2.090 μm) and NBP (2.213 μm).

[5] = MFFT of pigmented and complete PUDs; format: physicochemical; conditions: pigmented and complete PUD, 3 wt. % coalescing agent
Source text: as §1, with “agents. The standard test for determining this temperature involves using a MFFT-BAR, as specified by standards ASTM D 2354 and ISO 2115. In general, the MFFT of a paint or coating is reduced temporarily by the use of coalescing agents.” for “agents.”

[6] = Drying time (ASTM D1640 / ASTM D5895); format: physicochemical; conditions: 200 μm humid film; blends by ASTM D1640, single solvents by ASTM D5895
Source text: as §1
The drying times for the pigmented PUD formulations were determined according to the ASTM D1640 “Standard Test Methods for Drying, Curing, or Film Formation of Organic Coatings” standard or the ASTM D5895 “Standard Test Methods for Evaluating Drying or Curing During Film Formation of Organic Coatings Using Mechanical Recorders” standard. Four stages of drying can be identified depending on the trace left by the needle on the paint surface: Stage 1—Set-to-Touch time, Stage 2—Tack-Free time, Stage 3—Dry-Hard time, and Stage IV—Dry trough time. However, Stage IV is often hard to detect.
In general, the paints were applied at a humid film thickness of 200 μm by means of a bar coater on a Leneta sheet and the needle rate was set at 60 cm/hr.
For the present examples, the drying times for the 2:1 A:B, 1:1 A:B, and 1:2 A:B solvents were determined using the ASTM D1640 standard, and the drying times for NM CPL, NE CPL, NMP, NBP, ester amide, and ester alcohol were determined using the ASTM D5895 standard.

[7] = Gloss of pigmented and complete PUDs (ISO 2813); format: physicochemical
Source text: as §1, §2

[8] = Viscosity and storage stability of pigmented PUD formulations; format: physicochemical; conditions: 1 month at 50° C., FIG. 5
Source text: as §1
Dispersions and emulsions tend to aggregate polyurethane particles during storage. One way to determine the stability of a polyurethane dispersion is to measure viscosity of the polyurethane dispersion over time. Viscosity is a measure of a solvent's resistance to gradual deformation by shear stress or tensile stress. […] The storage stability of the dispersions was evaluated based on variations between viscosity measurements performed on paints shortly after their preparation and after their storage for either one month at room temperature or one month at 50° C.

[9] = Open time (ASTM D7488); format: physicochemical; conditions: ASTM D7488, 23±2° C., 50±5% RH, wet film 200 μm
Source text: as §1
Open times were determined according to the ASTM D7488 “Test Method for Open Time of Latex” standard and the tests were performed under controlled temperature and humidity (23±2° C. and 50±5% RH). In general, the paints were applied at a wet film thickness of 200 μm on contrasting sealed charts by means of a doctor blade applicator, and “X” marks are made immediately with the wide curved end of a wooden paint brush. After a determined time internal, the brush was dipped into the paint to be tested and brushing of the X-marks was started in perpendicular direction to the initial drawdown using 10 strokes back and forth to work the paint under test into the drawdown area. This procedure is repeated after several time intervals. After their complete drying (1 week), the painted panels are observed by two different observers and the time for which the “X” marks to become visible is considered as the open time.

[10] = Freeze and thaw stability (ASTM D2243-95); format: physicochemical; conditions: for freeze-thaw stability and film properties (comparison): FIGS. 8 and 9
Protocol: Water-based emulsions and dispersions are susceptible to irreversible coagulation by freezing. Freeze and thaw stability was tested according the ASTM D2243-95 standard.
For these examples, pigmented PUD paints were subject to freeze-thaw cycles of 16 hours at −20° C. and 8 hours at room temperature and subsequently subject to visible observations. The paints were then applied on a tin plated steel plate at a thickness of approximately 200 μm for observing film properties.
In addition, the freeze-thaw stability was best for caprolactam-derived coalescing agents (NM CPL) and the blends even after subject to five cycles (see FIG. 9). In particular, the paints were visually observed after each cycle to see if there was any viscosity change, i.e., thickening of the paint. Then, the dry films of the coatings were observed visually.

[11] = Minimum film forming temperature, non-pigmented resin + coalescing agent; format: physicochemical; conditions: resin with 5 wt. % coalescing agent, film thickness 350 μm

Question: Which Solubility [1] does the source give for `CCN1CCCCCC1=O` [N—EtCPL, N-ethyl caprolactam] here?
Answer: The Solubility was 20.0 g/100 g of Solvent.

Question: What about the “Color (Black background) L*” value [2] of the same molecule?
Answer: The value was 94.45.

Question: And the “Color (Black background) a*” value [2]?
Answer: Its value is −0.92.

Question: What about the “Color (Black background) b*” value [2] of the same molecule?
Answer: The value was 2.46.

Question: What about the “Color (White background) L*” value [2] of the same molecule?
Answer: The value was 95.04.

Question: What about the “Color (White background) a*” value [2] of the same molecule?
Answer: Its value is −0.61.

Question: What about the “Color (White background) b*” value [2] of the same molecule?
Answer: The value was 3.24.

Question: What about the “effect on color (yellowing)” value [2] of the same molecule?
Answer: Its value is “no yellowing”.

Question: And the “Persoz Hardness” value ([3]; 1 Day)?
Answer: Its value is 101.0 ± 1.0.

Question: And the “Persoz Hardness” value ([3]; 7 Days)?
Answer: Its value is 102.0 ± 0.7.

Question: And the “Persoz Hardness” value ([3]; 14 Days)?
Answer: Its value is 101.4 ± 2.6.

Question: And the “Persoz Hardness” value ([3]; 21 Days)?
Answer: The value was 104.0 ± 2.8.

Question: And the “Wt. Loss” value [4]?
Answer: The value was 3.767 g/m^2.

Question: What about the “Loss of thickness after 200 wet-scrub cycles” value [4] of the same molecule?
Answer: The value was 1.797 µm.

Question: And the MFFT [5]?
Answer: Its MFFT is −2.4 °C.

Question: And the “Drying Time” value [6]?
Answer: Its value is 17.4 min.

Question: What about the “Gloss 20°” value [7] of the same molecule?
Answer: The value was 1.3 ± 0.

Question: And the “Gloss 60°” value [7]?
Answer: Its value is 3.0 ± 0.

Question: What about the “Gloss 85°” value [7] of the same molecule?
Answer: The value was 24.5 ± 0.5.

Question: And the “storage stability (viscosity buildup)” value [8]?
Answer: Its value is “low viscosity buildup”.

Question: What about the “Open Time” value [9] of the same molecule?
Answer: Its value is 16 min.

Question: What about the “freeze-thaw stability and film properties (comparison)” value [10] of the same molecule?
Answer: The value was “better freeze-thaw stability and film properties than NBP and ester alcohol”.

Question: And the MFFT [11]?
Answer: Its MFFT is −1.4±0.3 °C.

Question: What does the source list for `CN1CCCCCC1=O` [N—MeCPL, N-methyl caprolactam]?
Answer: Solubility [1]: 27.5 g/100 g of Solvent; Color (Black background) L* [2]: 94.09; Color (Black background) a* [2]: −0.97; Color (Black background) b* [2]: 2.25; Color (White background) L* [2]: 95.07; Color (White background) a* [2]: −0.52; Color (White background) b* [2]: 3.32; effect on color (yellowing) [2]: no yellowing; Persoz Hardness ([3]; 1 Day): 95.2 ± 1; Persoz Hardness ([3]; 7 Days): 101.2 ± 3; Persoz Hardness ([3]; 14 Days): 122.0 ± 3; Persoz Hardness ([3]; 21 Days): 124.0 ± 3; Persoz Hardness ([3]; 28 Days, listed as NM CPL): ~126.0±1; Persoz Hardness ([3]; 28 Days, listed as NMCPL): 126.0 ± 1; Wt. Loss [4]: 3.763 g/m^2; Loss of thickness after 200 wet-scrub cycles [4]: 2.035 µm; MFFT [5]: −0.8 °C; Drying Time [6]: 11.6 min; Gloss 20° [7]: 1.3 ± 0; Gloss 60° [7]: 3.0 ± 0; Gloss 85° [7]: 23.2 ± 0.2; storage stability (viscosity buildup) [8]: low viscosity buildup; Open Time [9]: 14 min; freeze-thaw stability and film properties (comparison) [10]: better freeze-thaw stability and film properties than NBP and ester alcohol; freeze-thaw stability: viscosity change (thickening of the paint) ([10]; cycles of 16 hours at −20° C. and 8 hours at room temperature): no such viscosity change even after five freeze-thaw cycle; MFFT [11]: −0.8±0.4 °C
